The text below walks through data of the supplement of paper PMC4862054.

One assay relates to CAL-120. Particulars: 72 h. In outline:
(§1)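 Breast cancer cell lines (20 µl suspension) were seeded into 384-well plates holding compound at 5 concentrations in 10-fold steps over a compound-specific 10,000-fold range, then incubated 72 h. Cell death was read first by CellTox Green fluorescence (485/520 nm), then viability by CellTiter-Glo luminescence after 10 min at room temperature. Each plate was normalised to 0.1 % DMSO and a positive kill control. EC50 was fitted from the dose-response curves and censored at the top concentration.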

Another assay concerns Hs578T. The conditions noted are these: 72 h. In outline: as §1
Assay [1] relates to MDA-MB-453. The conditions noted are these: 72 h. In a few lines:
as §1

The test system of the next assay is MDA-MB-231. The conditions noted are these: 72 h. In outline:
as §1

The test system of assay [2] is BT-549. Particulars: 72 h. In outline: as §1
In assay [3] the test system is CAL-51. The conditions noted are these: 72 h. In outline: as §1
Assay [4] deals with CAL-85-1. The conditions noted are these: 72 h. In outline: as §1
Another assay concerns MCF-10A. The conditions noted are these: 72 h. In a few lines:
as §1

For a further assay, the system named is HCC1937. The conditions noted are these: 72 h. In outline: as §1
The subject of assay [5] is MDA-MB-436. The conditions noted are these: 72 h. In outline:
as §1

Assay [6] has as its system BT-474. The conditions noted are these: 72 h. In outline: as §1
The subject of assay [7] is SK-BR-3. The conditions noted are these: 72 h. In a few lines:
as §1

Another assay has as its system MDA-MB-468. The conditions noted are these: 72 h. In a few lines: as §1
Assay [8] concerns MDA-MB-453. In words: normalised viability (% of control), CellTiter-Blue; higher = more viable cells (about 100 = DMSO control). The conditions noted are these: 10000 nM; incubation time: 72 h. As for the experimental part:
(§2)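 DSRT, CellTiter-Blue viability, 72 h incubation. Signal is normalised to DMSO and benzethonium chloride controls. Value is the normalised response at dose 9.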

In assay [9] the test system is CAL-148. Described as above. Particulars: 10000 nM; incubation time: 72 h. The procedure:
as §2

For assay [10], the system named is HDQ-P1. The description is as above. The conditions noted are these: 10000 nM; incubation time: 72 h. As for the experimental part: as §2
Assay [11] has as its system CAL-51. The assay is described as above. Particulars: 10000 nM; incubation time: 72 h. As for the experimental part: as §2
In assay [12] the test system is CAL-85-1. The description is as above. The conditions noted are these: 10000 nM; incubation time: 72 h. The procedure:
as §2

Assay [13] deals with DU-4475. Described as above. The conditions noted are these: 10000 nM; incubation time: 72 h. As for the experimental part: as §2
Assay [14] concerns MDA-MB-453. The assay is described as above. The conditions noted are these: 300 nM; incubation time: 72 h. The procedure:
(§3)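 DSRT, CellTiter-Blue viability, 72 h incubation. Signal is normalised to DMSO and benzethonium chloride controls. Value is the normalised response at dose 6.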

In assay [15] the test system is CAL-148. The assay is described as above. The conditions noted are these: 300 nM; incubation time: 72 h. As for the experimental part:
as §3

Assay [16] concerns HDQ-P1. The assay is described as above. The conditions noted are these: 300 nM; incubation time: 72 h. The procedure:
as §3

The test system of assay [17] is CAL-51. The assay is described as above. Particulars: 300 nM; incubation time: 72 h. As for the experimental part: as §3
Assay [18] concerns CAL-85-1. The assay is described as above. The conditions noted are these: 300 nM; incubation time: 72 h. As for the experimental part: as §3
For assay [19], the system named is DU-4475. Described as above. The conditions noted are these: 300 nM; incubation time: 72 h. The procedure: as §3
The test system of assay [20] is MDA-MB-453. The assay is described as above. The conditions noted are these: 10 nM; incubation time: 72 h. The procedure: (§4)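 DSRT, CellTiter-Blue viability, 72 h incubation. Signal is normalised to DMSO and benzethonium chloride controls. Value is the normalised response at dose 3.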
Assay [21] relates to CAL-148. Described as above. The conditions noted are these: 10 nM; incubation time: 72 h. The procedure:
as §4

In assay [22] the test system is HDQ-P1. Described as above. The conditions noted are these: 10 nM; incubation time: 72 h. The procedure: as §4
Assay [23] concerns MDA-MB-436. The assay is described as above. Particulars: 100 nM; incubation time: 72 h. The procedure: as §4
In another assay the test system is HCC1599. The assay is described as above. The conditions noted are these: 100 nM; incubation time: 72 h. As for the experimental part:
as §4

Assay [24] deals with BT-549. The description is as above. The conditions noted are these: 100 nM; incubation time: 72 h. The procedure: as §4
A further assay relates to HCC1143. The assay is described as above. The conditions noted are these: 100 nM; incubation time: 72 h. The procedure:
as §4

The subject of assay [25] is BT-474. Described as above. Particulars: 100 nM; incubation time: 72 h. The procedure: as §4
The test system of assay [26] is SK-BR-3. The assay is described as above. The conditions noted are these: 100 nM; incubation time: 72 h. The procedure:
as §4

For assay [27], the system named is MDA-MB-453. The conditions noted are these: 72 h. In outline:
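Each 384-well plate was pre-loaded with compound dissolved in 5 µl medium, received breast cancer cells in 20 µl suspension, and was incubated 72 h. A 2.5 µl addition of CellTiter-Blue for 2 h at 37 °C was followed by a fluorescence read at 560/590 nm. Data were normalised per plate to vehicle and a positive kill control and checked by Z'-factor. EC50 was fitted from the percent-inhibition dose-response curve, censored at the highest concentration, excluding rows with a drug sensitivity score of zero.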
This is another data set of the same source.

The structures appear in SMILES notation.

Take `COc1ccccc1S(=O)(=O)Nc1ccc2c(c1)CN(C)C(=O)N2` [PFI-1]: the “EC50, CellTiter-Glo” value with CAL-120 was 2570 nM; with Hs578T it was 1810 nM; with MDA-MB-453 [1] it was 1980 nM; in the assay on MDA-MB-231, 1610 nM; in the assay on BT-549 [2], 1350 nM; with CAL-51 [3], 6310 nM. Moreover, the “EC50, CellTiter-Glo” value in the assay with CAL-85-1 [4] was found to be 8460 nM; in the assay on MCF-10A, 4160 nM.

For `NS(=O)(=O)OC[C@@H]1C[C@@H](n2ccc3c(N[C@H]4CCc5ccccc54)ncnc32)C[C@@H]1O` [Pevonedistat], the “EC50, CellTiter-Glo” value with CAL-120 is 448 nM; with Hs578T, 679 nM; in the assay with MDA-MB-453 [1], 780 nM; in the assay on HCC1937, 2940 nM; in the assay on MDA-MB-231 it was 953 nM; with MDA-MB-436 [5], 294 nM. For the same compound, the “EC50, CellTiter-Glo” value worked out at 168 nM in the assay with BT-549 [2]; 769 nM in the assay on BT-474 [6]; 91.2 nM in the assay with CAL-51 [3]; 25.7 nM in the assay on SK-BR-3 [7]; 191 nM in the assay on CAL-85-1 [4]; 68.5 nM in the assay with MDA-MB-468.

For `CNNCc1ccc(C(=O)NC(C)C)cc1` [Procarbazine], the normalised viability in the assay with MDA-MB-453 [8] worked out at 110%; in the assay with CAL-148 [9] it was 97%; with HDQ-P1 [10], 124%; in the assay on CAL-51 [11], 102%; in the assay on CAL-85-1 [12], 85.1%; in the assay with DU-4475 [13] it was 85%. In addition, the normalised viability in the assay with MDA-MB-453 [14] was 101%; in the assay with CAL-148 [15] it was 101%; in the assay on HDQ-P1 [16], 97.5%; with CAL-51 [17], 105%; in the assay on CAL-85-1 [18] it was 100%; in the assay with DU-4475 [19], 83.2%. Moreover, the normalised viability worked out at 105% in the assay on MDA-MB-453 [20]; 98.1% in the assay on CAL-148 [21]; 128% in the assay on HDQ-P1 [22]; 97% in the assay with MDA-MB-436 [23]; 94.8% in the assay on HCC1599; 111% in the assay with BT-549 [24]. For the same compound, the normalised viability in the assay with HCC1143 was 98.7%; with BT-474 [25] it was 114%; in the assay with SK-BR-3 [26] it was 92%.

`CN(C)C[C@@H]1CCn2cc(c3ccccc32)C2=C(C(=O)NC2=O)c2cn(c3ccccc23)CCO1` [Ruboxistaurin]: the “EC50, CellTiter-Blue viability” value in the assay with MDA-MB-453 [27] stood at 4240 nM. For the same compound, the “EC50, CellTiter-Glo” value amounted to 2920 nM in the assay on MDA-MB-453 [1]; 6180 nM in the assay on HCC1937; 2590 nM with MDA-MB-231; 2670 nM in the assay with MDA-MB-436 [5]; 2460 nM with BT-549 [2]; 2390 nM in the assay on BT-474 [6]. Besides, the “EC50, CellTiter-Glo” value with CAL-51 [3] came to 2770 nM; with SK-BR-3 [7], 2160 nM; in the assay with CAL-85-1 [4], 3470 nM; in the assay on MCF-10A, 7230 nM; in the assay with MDA-MB-468 it was 1700 nM. Besides, the normalised viability in the assay on MDA-MB-453 [8] was determined as 0.78%; in the assay on CAL-148 [9], 24.3%; in the assay on HDQ-P1 [10], 22.5%; in the assay with CAL-51 [11] it was 27.4%; in the assay on CAL-85-1 [12], 84.3%; in the assay with DU-4475 [13] it was 1.01%. Moreover, the normalised viability with MDA-MB-453 [14] amounted to 104%; in the assay with CAL-148 [15], 99%; in the assay on HDQ-P1 [16], 48.4%; in the assay with CAL-51 [17], 91%; in the assay with CAL-85-1 [18], 106%; with DU-4475 [19], 82.2%. For the same compound, the normalised viability with MDA-MB-453 [20] came to 96.7%; with CAL-148 [21], 112%; in the assay with HDQ-P1 [22], 82.6%; in the assay with MDA-MB-436 [23], 91.6%; with HCC1599, 111%; in the assay on BT-549 [24], 89%. In addition, the normalised viability in the assay on HCC1143 was 128%; in the assay on BT-474 [25] it was 98.7%; in the assay on SK-BR-3 [26], 82.2%.
